Five compounds from patent EP1874311B1, “A METHOD FOR PREVENTING, DELAYING OR REVERTING ABNORMAL AMYLOID DEPOSITION” (Research & Innovation S.p.A., priority 2005, dated 2006) can be followed below.

The test system of assay [1] is H4/APP cells. Briefly: Secretion of total beta-amyloid into culture medium of H4/APP cells (ELISA). It counts as cell-based, Human. The following applies: for activity at 10 µM / activity at 30 µM: read-out: beta-amyloid concentration in culture medium; for beta-amyloid concentration in culture medium: h4/app cells, 120 min. Here is the method: Human neuroglioma (H4) cells, stably transfected with the gene codifying for the human protein APP695 having mutations related to Alzheimer disease, have been used.
Cells were grown in OPTI-MEM containing 10% FBS (foetal bovine serum), hygromycin (0.2 mg/ml) and blasticidine (0.002 mg/ml).
The Aβ peptide in cells is produced by the sequential processing of beta- and gamma-secretases proteases and is then secreted in the culture medium.
Peptide concentration in the extracellular medium was measured using a specific ELISA methodology.
Confluent H4/APP cells where incubated for 2 h with the vehicle (0.1 % DMSO) or with nicardipine at different concentrations (3µM, 10µM, 30µM), beta-amyloid concentration in culture medium is expressed as % control
(In general: In an ELISA, binding on a coated surface is turned into a signal by an enzyme label.)

Assay [2] has as its system TG2576 mice. The assay is described as follows: Plasma amyloidogenic Aβ peptides in TG2576 mice after i.p. administration (ELISA). It counts as in vivo. The settings on record: 3 hours after 10 mg/kg i.p.; for Aβ1-42 (%) / Total Aβ (%): before treatment = 100. The method, then: The selected dihydropyridine, nicardipine (see table 2) as well as nimodipine were administered, in TG2576 animals, at dose of 10 mg/Kg i.p. Animals were bleed before treatment for assessment of basal circulating Aβ peptides as well as 3 hours post-treatment. Determination of blood amyloidogenic Aβ peptide concentration was performed using ELISA technique.
Table 2 Levels of the amyloidogenic peptides in plasma of TG2576 mice before and 3 hours following administration of the exemplified dihydropyridines

Setting [3] is: Homo sapiens, 10µM, 2 h incubation, confluent H4/APP cells, vehicle = 100.
[4] abbreviates: Homo sapiens, 30µM, 2 h incubation, confluent H4/APP cells, vehicle = 100.

Read-outs that look alike come from different tables or passages of the source. Marks after values point to notes of the source that are not given here.

In general, inhibition refers to how much of the control response was suppressed. As to `COC(=O)C1=C(C)NC(C)=C(C(=O)OCCCN2CCC(c3ccccc3)(c3ccccc3)CC2)C1c1cccc([N+](=O)[O-])c1` (single isomer, unassigned; (+)) [(+)Niguldipine, (+)niguldipine], in assay [1] (Homo sapiens, 2 h), the activity at 10 µM was found to be 71% and the activity at 30 µM turned out to be 43%. Also, the inhibition at 30 µM in assay [1] (Homo sapiens, read-out: inhibition of the extracellular amount of Aβ peptides) came to 57%.

As to `COCCOC(=O)C1=C(C)NC(C)=C(C(=O)OC(C)C)C1c1cccc([N+](=O)[O-])c1` (stereo not shown) [Nimodipine, nimodipine], in assay [2], the “Aβ1-42 (%)” value was determined as 156% and the “Total Aβ (%)” value came out at 87%. For the same compound, in assay [2] (n=7), the “Total Aβ (pM)” value is 759,1±27,0 pM.

Consider `COC(=O)C1=C(C)NC(C)=C([N+](=O)[O-])C1c1ccccc1C(F)(F)F` (stereo not shown) [BayK 8644], for which the activity at 10 µM in assay [1] (setting [3]) was found to be 98%. Further, the activity at 30 µM in assay [1] (setting [4]) came to 96%. In assay [1] (result in words), the “beta-amyloid content in culture media from H4/APP cells” value is listed as “did not affect”.

For `COC(=O)C1=C(C)NC(C)=C(C(=O)OCCCN2CCC(c3ccccc3)(c3ccccc3)CC2)C1c1cccc([N+](=O)[O-])c1` (single isomer, unassigned; (-)) [(-)Niguldipine, (-)niguldipine], in assay [1] (30 µM), the “inhibition of the extracellular amount of Aβ peptides” value worked out at 53% and the “beta-amyloid concentration in culture medium” value is 47* % control. In addition, the “beta-amyloid concentration in culture medium” value in assay [1] (10 µM) is listed as 68* % control.

Take `COC(=O)C1=C(C)NC(C)=C(C(=O)OCCN(C)Cc2ccccc2)C1c1cccc([N+](=O)[O-])c1` (stereo not shown) [Nicardipine, nicardipine]: the activity at 10 µM in assay [1] (setting [3]) stood at 62%. Besides, the activity at 30 µM in assay [1] (setting [4]) is 58%. Further, in assay [2], the “Aβ1-42 (%)” value was found to be 176% and the “Total Aβ (%)” value worked out at 170%.
